Target: T1, polycystin-2 (Homo sapiens, UniProt Q13563)
T1 construct: expressed in transfected cells
T1 sequence (Q13563 1-968): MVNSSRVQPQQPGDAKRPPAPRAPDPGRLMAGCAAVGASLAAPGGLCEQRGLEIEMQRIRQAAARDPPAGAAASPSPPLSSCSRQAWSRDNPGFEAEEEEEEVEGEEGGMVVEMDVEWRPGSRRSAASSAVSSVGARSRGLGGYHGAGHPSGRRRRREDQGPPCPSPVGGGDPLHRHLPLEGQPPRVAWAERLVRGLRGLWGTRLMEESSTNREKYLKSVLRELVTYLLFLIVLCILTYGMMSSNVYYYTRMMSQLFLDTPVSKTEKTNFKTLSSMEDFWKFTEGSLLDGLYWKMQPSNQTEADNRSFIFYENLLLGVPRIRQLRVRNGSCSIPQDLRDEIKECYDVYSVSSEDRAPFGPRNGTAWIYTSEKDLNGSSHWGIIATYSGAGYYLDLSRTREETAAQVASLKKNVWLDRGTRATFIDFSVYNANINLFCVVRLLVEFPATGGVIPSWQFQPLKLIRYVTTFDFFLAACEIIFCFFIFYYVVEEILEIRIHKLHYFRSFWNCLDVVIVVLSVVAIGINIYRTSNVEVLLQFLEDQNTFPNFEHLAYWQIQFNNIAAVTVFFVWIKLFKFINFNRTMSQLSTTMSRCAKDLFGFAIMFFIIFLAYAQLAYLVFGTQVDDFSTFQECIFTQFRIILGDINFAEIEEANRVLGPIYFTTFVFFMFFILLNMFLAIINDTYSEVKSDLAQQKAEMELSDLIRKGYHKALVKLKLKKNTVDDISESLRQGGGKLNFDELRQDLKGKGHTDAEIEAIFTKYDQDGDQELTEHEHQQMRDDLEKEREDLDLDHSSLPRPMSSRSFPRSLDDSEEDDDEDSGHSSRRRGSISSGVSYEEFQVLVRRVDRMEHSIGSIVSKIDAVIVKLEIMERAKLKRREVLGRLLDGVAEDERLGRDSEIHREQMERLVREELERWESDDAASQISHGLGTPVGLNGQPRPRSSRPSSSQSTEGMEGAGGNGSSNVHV
Type: cell-based
Details: for Effect of external disulfide reducing agents on wild type polycystin-2 current: whole cilia configuration
From the text: Generation of HEK PKD2^Null cells line and the stable expression PKD2 variants. To generate the HEK PKD2^Null cell lines, we used a CRISPR/Cas9 gene editing kit available from Addgene (kit 1000000055). HEK 293 cells were electro-transfected with sgRNAs (caccg[…] and aaac[…]c) with the All-in-one Cas9 plasmid. […] Cells generated from single cell clones were selected after 4 weeks of expansion in a 96-wells plate. […] To generate the WT and variant PKD2 GFP or mCherry C-terminally tagged variant cell lines, the hPKD gene was subcloned into lentiviral pLVX-mcherry-N1 (Clontech) or pLVX-GFP-N1 (Clontech) vector using the Gibson assembly method. A linker encoding for six glycine residues was added between the PKD2 gene and the C-terminal tags, and missense variants were generated using standard, site-directed mutagenesis. The third-generation lentiviral packaging plasmids used for stable expression contained: pMDLg/pRRE (Addgene), […] pRSV-Rev (Addgene), and envelope expressing plasmid pMD2.G (Addgene). LentiX-293T cells (Takara) were transfected with polyethylineimine (Polysciences) at a 4:1:1:1 ratio of the transgene and viral packaging constructs. Supernatants were collected 48 and 72 hours post transfection and filtered through a 0.45 μm syringe filter. Lentiviral supernatant was concentrated 100 times using 1 volume of PEG-it (System Biosciences) virus precipitation solution and 4 volume of lentivirus-containing supernatant. The PEG-it and supernatant mixture were kept at 4 degrees for 24 hours and centrifuged at 1500 rpm for 30 minutes. The pellet containing lentivirus was resuspended with 1/100th volume of PBS of the original supernatant volume. HEK cells were infected with the lentivirus supernatant; PKD2-GFP or PKD2-mCherry expression was selected using culture media containing puromycin (2 μg/ml) for 30 to 90 days. Cells were then fluorescence-activated cell sorted (BD FacsMelody) at 5000 to 10,000 counts per minute to enrich for the transgene expression. Stable cell lines were cultured in Dulbecco's modified essential medium (DMEM) supplemented with 10% fetal bovine serum (FBS) and 100 units/ml penicillin, 100 units/ml streptomycin and 1 μg/ml puromycin selection antibiotic.
Electrophysiology. Ciliary ion currents were recorded using borosilicate glass electrodes polished to resistances of 14-22 MΩ using the cilium patch method previously described^32. Whole cell electrodes used to measure poly cystin-2L1 currents were fire polished to 1.5-4 MΩ resistances. Unless otherwise stated, whole cilia ionic currents were recorded in symmetrical [Na^+]. The pipette standard internal solution contained (in mM): 90 NaMES, 10 NaCl, 10 HEPES, 10 Na4-BAPTA (Glycine, N, N′-[1,2-ethanediylbis(oxy-2,1-phenylene)]bis[N-(carboxymethyl)]-,tetrasodium); pH was adjusted to 7.3 using NaOH. Standard bath solution contained 140 NaCl, 10 HEPES, 1.8 CaCl2); pH 7.4. All solutions were osmotically balanced to 295 (±6) mOsm with mannitol. Extracellular solutions containing TCEP and GSH were used within six hours of formulation. Data were collected using an Axopatch 200B patch clamp amplifier, Digidata 1440A, and pClamp 10 software. Whole-cilium and excised patch currents were digitized at 25 kHz and low-pass filtered at 10 kHz. In the whole cilium configuration, the holding potential was −60 mV and then depolarized using a 400 ms voltage ramp from −100 mV to 100 mV. The whole cell recordings of polycystin-2L1 currents were either activated by the same ramp protocol or by 100 ms depolarizations to 100 mV from a −100 mV holding potential.

| Structure (SMILES) | Effect of external disulfide reducing agents on wild type polycystin-2 current | Block of ciliary WT polycystin-2 currents by trivalent ions (10 μM, voltage ramps) |
| --- | --- | --- |
| N[C@@H](CCC(=O)N[C@@H](CS)C(=O)NCC(=O)O)C(=O)O [GSH, reduced glutathione] | near instantaneous reduction |  |
| O=C(O)CCP(CCC(=O)O)CCC(=O)O [TCEP, tris-2-carboxyethyl phosphine] | near instantaneous reduction |  |
| [Gd] [gadolinium] |  | blocked |
